Key:
[1] = test system: SF-295; test: Growth inhibition of human SF-295 cells; format: functional
[2] = test system: Panel NCI-60 (60 carcinoma cell lines); test: Growth inhibition of human Panel NCI-60 cells; format: functional

Structure (SMILES) | GI50 [1] [nM] | GI50 [2] [nM]
COc1cc(/C=C/c2cc(O)c(C/C=C(\C)CCC=C(C)C)c(O)c2)cc2c1O[C@]1(C)CC[C@@H](O)C(C)(C)[C@H]1C2 [3-DEOXYSCHWEINFURTHIN B] | 62 | 620
COc1cc(CCc2cc(O)c(C/C=C(\C)CC/C=C(\C)CO)c(O)c2)cc2c1O[C@]1(C)CC[C@@H](O)C(C)(C)[C@H]1C2 | 2500 | 4900
COc1cc(-n2cc(-c3cc(O)c(C/C=C(\C)CCC=C(C)C)c(O)c3)nn2)cc2c1O[C@]1(C)CC[C@@H](O)C(C)(C)[C@H]1C2 | 35 | 710
CC(C)=CCC/C(C)=C/Cc1c(O)cc(/C=C/c2cc(O)c3c(c2)C[C@@H]2C(C)(C)[C@H](O)[C@H](O)C[C@@]2(C)O3)cc1O [SCHWEINFURTHIN A] | 11 | 360

Reference: ChEMBL document CHEMBL5236570, “Substitution of a triazole for the central olefin in biologically active stilbenes” (2022)
